In this data set the test system is skin and eyes. The following applies: aqueous solution, pH=3.0.

`O=C(O)CO` [glycolic acid]: the “sting or burning when applied to freshly shaven skin” value was “stings or burns”.
